# Experiments:
# [1] = Solubility of coating-composition components in FC-72 (comparative coating examples); settings: label = solute, solvent = FC-72; coating composition preparation
# [2] = Solubility of FC-72 (perfluorohexane) in the fluorine-containing solvents; assay type: physicochemical; settings: for Solubility (% by weight) FC-72 (Fluorine Content: 79% by weight): Table 1, solute FC-72 dissolved in the solvent; for ability of the solvent to dissolve FC-72: label = solvent, solute = FC-72
# [3] = Measurement of solubility of compound (17) (fluorine-free organic compound) in fluorine-containing solvents; settings: Table 1; solute compound (17) dissolved in the solvent
# Experimental: The resulting solution is diluted with deutrochloroform, followed by measuring ^1H-NMR.
SMILES,solubility in FC-72 [1],Solubility (% by weight) FC-72 (Fluorine Content: 79% by weight) [2],ability of the solvent to dissolve FC-72 [2],Solubility (% by weight) Compound (17) (Fluorine Content: 0% by weight) [3],Solubility (% by weight) FC-72 [2]
"OCC(F)(F)C(F)(F)C(F)(F)C(F)(F)C(F)(F)C(F)(F)C(F)(F)C(F)(F)CO [1H,1H,10H,10H-hexadecafluoro-1,10-decanediol]",not completely soluble,,,,
CCO[Si](CCCN=C=O)(OCC)OCC [3-(triethoxysilyl)propyl isocyanate],not completely soluble,,,,
FC(F)(Cl)C(F)(F)OC(F)(Cl)C(Cl)(Cl)Cl (stereo not shown) [Compound (2)],,soluble in any,can dissolve FC-72 in any proportion,soluble in any,
FC(F)(Cl)C(F)(F)OC(F)(Cl)C(F)(Cl)Cl (stereo not shown) [Compound (2′)],,,can dissolve FC-72 in any proportion,,soluble in any
FC(F)(Cl)C(F)(OC(F)(Cl)C(Cl)(Cl)Cl)C(F)(F)Cl (stereo not shown) [Compound (3)],,soluble in any,can dissolve FC-72 in any proportion,soluble in any,
FC(Cl)(Cl)C(F)(F)OC(F)(Cl)C(F)(Cl)Cl (stereo not shown) [Compound (3′)],,,can dissolve FC-72 in any proportion,,soluble in any
FC(Cl)(Cl)C(F)(F)OC(F)(Cl)C(Cl)(Cl)Cl (stereo not shown) [Compound (4)],,soluble in any,can dissolve FC-72 in any proportion,soluble in any,
FC(Cl)(Cl)C(F)(Cl)OC(F)(F)C(Cl)(Cl)Cl (stereo not shown) [Compound (4′)],,,can dissolve FC-72 in any proportion,,soluble in any
FC(F)(OC(F)(Cl)C(Cl)(Cl)Cl)C(Cl)(Cl)Cl (stereo not shown) [Compound (5)],,soluble in any,can dissolve FC-72 in any proportion,soluble in any,
FC(F)(Cl)C(F)(OC(F)(Cl)C(F)(Cl)Cl)C(F)(F)Cl (stereo not shown) [Compound (5′)],,,can dissolve FC-72 in any proportion,,soluble in any
